Results on 1 molecule are retold here after BindingDB's records for PubMed 1857334 (National Institute of Mental Health, 1991).

In this experiment the target is T1, Adenosine receptor A1 (Rattus norvegicus, UniProt P25099).
T1 sequence (P25099 whole entry): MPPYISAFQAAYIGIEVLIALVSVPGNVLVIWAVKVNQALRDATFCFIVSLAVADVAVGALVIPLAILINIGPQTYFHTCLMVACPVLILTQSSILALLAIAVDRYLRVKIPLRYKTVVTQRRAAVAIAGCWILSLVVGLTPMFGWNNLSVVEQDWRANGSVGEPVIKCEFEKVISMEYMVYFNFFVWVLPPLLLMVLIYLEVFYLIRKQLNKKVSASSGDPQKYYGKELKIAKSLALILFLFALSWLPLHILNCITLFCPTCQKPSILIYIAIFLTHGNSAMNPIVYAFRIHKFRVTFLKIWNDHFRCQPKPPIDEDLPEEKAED

The term Ki denotes a measure of affinity in units of concentration, obtained from inhibition or displacement.

On to `CCCn1c(=O)c2[nH]c(-c3ccc(OCC(=O)NCCN)cc3)nc2n(CCC)c1=O` [N-(2-Amino-ethyl)-2-[4-(2,6-dioxo-1,3-dipropyl-2,3,6,9-tetrahydro-1H-purin-8-yl)-phenoxy]-acetamide], for which the affinity, expressed as Ki, was 2 nM.
